Experimental data taken from ChEMBL document CHEMBL6121018, “Targeting JNK3 for Alzheimer's disease: Design and synthesis of novel inhibitors with aryl group diversity utilizing wide pocket” (Eur J Med Chem, 2025).
One block for each compound: values may come before it.

Columns and labels:
[1] = biological target: T1, Mitogen-activated protein kinase 10 (Homo sapiens, UniProt P53779); assay: Inhibition of JNK3 (unknown origin) using ATF as substrate in presence of [gamma-33P]ATP incubated for 40 mins by scintillation counter analysis
T1 sequence (P53779 whole entry): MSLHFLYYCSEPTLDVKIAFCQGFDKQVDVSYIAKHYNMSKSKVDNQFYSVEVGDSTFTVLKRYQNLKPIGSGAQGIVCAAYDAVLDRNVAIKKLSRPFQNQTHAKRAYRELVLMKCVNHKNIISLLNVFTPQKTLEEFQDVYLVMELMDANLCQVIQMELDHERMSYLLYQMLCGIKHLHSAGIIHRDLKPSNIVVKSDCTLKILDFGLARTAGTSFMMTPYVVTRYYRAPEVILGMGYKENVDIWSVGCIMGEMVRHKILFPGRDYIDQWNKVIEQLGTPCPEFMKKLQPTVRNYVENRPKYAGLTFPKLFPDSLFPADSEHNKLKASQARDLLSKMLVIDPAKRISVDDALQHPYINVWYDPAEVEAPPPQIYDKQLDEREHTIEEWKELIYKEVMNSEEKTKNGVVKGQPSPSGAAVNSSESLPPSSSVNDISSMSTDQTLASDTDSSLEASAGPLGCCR

in vitro [2] = details: Sprague-Dawley, rat, primary cortical neurons
Description: Cytotoxicity against Sprague-Dawley rat Primary cortical neuron assessed as cell viability incubated for 24 hrs by MTT assay

Cortical neurone [3] = assay: (§1) Neuroprotective activity against amyloid beta (1 to 42 residues)-induced Sprague-Dawley rat primary cortical neurons assessed as cell viability at 20 uM pretreated with compound for 90 mins followed by amyloid beta (1 to 42 residues) induction for 24 hrs and measured on day 5 by MTT assay (reference value: 100%); assay type: functional; details: 121.5 h, time 7290 min, read-out: Activity
[4] = biological target: Glycogen synthase kinase-3 beta (Homo sapiens, UniProt P49841); assay: Inhibition of GSK3beta (unknown origin) using 33P-ATP as substrate incubated for 2 hrs by P81 filter-binding method
Glycogen synthase kinase-3 beta, sequence (P49841 whole entry): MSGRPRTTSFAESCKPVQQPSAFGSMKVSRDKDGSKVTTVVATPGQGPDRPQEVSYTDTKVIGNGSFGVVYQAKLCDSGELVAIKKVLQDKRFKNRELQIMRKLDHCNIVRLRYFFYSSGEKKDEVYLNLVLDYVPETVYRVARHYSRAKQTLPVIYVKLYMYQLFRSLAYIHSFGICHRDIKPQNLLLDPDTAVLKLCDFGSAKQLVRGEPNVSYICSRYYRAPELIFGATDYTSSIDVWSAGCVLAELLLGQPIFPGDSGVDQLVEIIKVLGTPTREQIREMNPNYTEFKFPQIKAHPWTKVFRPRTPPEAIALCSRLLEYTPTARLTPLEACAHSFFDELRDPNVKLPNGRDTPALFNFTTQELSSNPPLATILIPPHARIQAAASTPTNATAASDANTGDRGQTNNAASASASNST

[5] = biological target: Mitogen-activated protein kinase 9 (Homo sapiens, UniProt P45984)
Mitogen-activated protein kinase 9, sequence (P45984 whole entry): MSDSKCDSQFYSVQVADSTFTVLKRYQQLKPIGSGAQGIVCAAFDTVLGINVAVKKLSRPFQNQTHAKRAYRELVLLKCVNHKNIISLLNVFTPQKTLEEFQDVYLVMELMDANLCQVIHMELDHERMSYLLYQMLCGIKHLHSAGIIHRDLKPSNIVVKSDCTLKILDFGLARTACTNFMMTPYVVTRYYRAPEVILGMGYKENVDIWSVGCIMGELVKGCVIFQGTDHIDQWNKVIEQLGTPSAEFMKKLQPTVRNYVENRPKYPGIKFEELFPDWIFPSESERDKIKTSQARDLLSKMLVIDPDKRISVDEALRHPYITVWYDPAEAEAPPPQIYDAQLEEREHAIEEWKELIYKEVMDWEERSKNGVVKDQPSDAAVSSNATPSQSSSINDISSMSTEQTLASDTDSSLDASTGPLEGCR
Description: Inhibition of JNK2 (unknown origin) using 33P-ATP as substrate incubated for 2 hrs by P81 filter-binding method

[6] = biological target: Glycogen synthase kinase-3 alpha (Homo sapiens, UniProt P49840); assay: Inhibition of GSK3alpha (unknown origin) using 33P-ATP as substrate incubated for 2 hrs by P81 filter-binding method
Glycogen synthase kinase-3 alpha, sequence (P49840 whole entry): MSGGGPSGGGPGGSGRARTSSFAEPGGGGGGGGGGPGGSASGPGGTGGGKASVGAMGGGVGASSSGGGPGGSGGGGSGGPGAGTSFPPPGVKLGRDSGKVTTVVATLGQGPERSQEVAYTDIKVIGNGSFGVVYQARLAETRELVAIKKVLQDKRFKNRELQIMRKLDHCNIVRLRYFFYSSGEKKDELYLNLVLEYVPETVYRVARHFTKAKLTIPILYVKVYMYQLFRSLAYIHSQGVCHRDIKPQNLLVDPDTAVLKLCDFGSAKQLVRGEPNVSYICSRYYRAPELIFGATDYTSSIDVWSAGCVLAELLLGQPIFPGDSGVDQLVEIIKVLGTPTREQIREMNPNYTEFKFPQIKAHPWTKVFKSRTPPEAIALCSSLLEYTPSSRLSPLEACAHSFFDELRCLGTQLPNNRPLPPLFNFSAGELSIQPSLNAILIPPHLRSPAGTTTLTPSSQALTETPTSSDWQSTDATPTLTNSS

[7] = biological target: Mitogen-activated protein kinase 14 (Homo sapiens, UniProt Q16539)
Mitogen-activated protein kinase 14, sequence (Q16539 whole entry): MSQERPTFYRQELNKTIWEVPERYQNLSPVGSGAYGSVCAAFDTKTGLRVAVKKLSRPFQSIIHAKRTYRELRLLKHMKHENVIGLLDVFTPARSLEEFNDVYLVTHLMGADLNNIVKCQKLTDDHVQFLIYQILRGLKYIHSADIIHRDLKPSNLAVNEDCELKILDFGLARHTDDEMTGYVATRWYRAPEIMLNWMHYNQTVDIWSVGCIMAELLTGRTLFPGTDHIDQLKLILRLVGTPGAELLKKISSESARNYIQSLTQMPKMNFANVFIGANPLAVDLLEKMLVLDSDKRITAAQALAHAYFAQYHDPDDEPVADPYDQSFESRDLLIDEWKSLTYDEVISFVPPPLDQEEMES
Description: Inhibition of p38alpha (unknown origin) using 33P-ATP as substrate incubated for 2 hrs by P81 filter-binding method

[8] = biological target: Mitogen-activated protein kinase 8 (Homo sapiens, UniProt P45983)
Mitogen-activated protein kinase 8, sequence (P45983 whole entry): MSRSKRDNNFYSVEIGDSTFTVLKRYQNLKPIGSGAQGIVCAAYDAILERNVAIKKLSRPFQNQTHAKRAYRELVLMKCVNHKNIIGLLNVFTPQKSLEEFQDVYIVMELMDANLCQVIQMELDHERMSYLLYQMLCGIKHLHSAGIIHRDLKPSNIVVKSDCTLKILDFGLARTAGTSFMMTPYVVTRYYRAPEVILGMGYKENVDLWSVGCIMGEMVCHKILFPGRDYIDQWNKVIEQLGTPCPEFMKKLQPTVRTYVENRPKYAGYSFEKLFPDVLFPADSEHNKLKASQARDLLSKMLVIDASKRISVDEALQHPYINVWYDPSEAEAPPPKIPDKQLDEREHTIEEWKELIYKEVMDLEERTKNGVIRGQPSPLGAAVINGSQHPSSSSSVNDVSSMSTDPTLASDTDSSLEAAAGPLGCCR
Description: Inhibition of JNK1 (unknown origin) using 33P-ATP as substrate incubated for 2 hrs by P81 filter-binding method

in vitro [9] = details: human, liver microsomes
in vitro [10] = details: human, plasma
Description: Stability in human plasma assessed as parent compound remaining at 60 mins

in vitro [11] = details: human, plasma; remark: listed apart in the source
Description: Stability in human plasma assessed as parent compound remaining at 30 mins

in vitro [12] = details: PAMPA
Description: Permeability coefficient of compound by PAMPA

Cortical neurone [13] = assay: as §1, with “10” for “20”; details: 121.5 h, read-out: Activity
[14] = biological target: T1, Mitogen-activated protein kinase 10; assay: Inhibition of JNK3 (unknown origin)

Structure (SMILES): Oc1ccc(/C=C/c2cc(O)cc(O)c2)cc1 [RESVERATROL]
- viability at 20 µM (Cortical neurone [3]): 85%

Structure (SMILES): NC(=O)c1nn(-c2ccnc(N[C@H]3CCCN(C(=O)C4CC4)C3)n2)cc1/C=C/c1ccccc1
- IC50 [4]: 14 nM
- IC50 [5]: 450 nM
- IC50 [6]: 35 nM
- IC50 [7]: Not_active
- IC50 [8]: 80 nM

Structure (SMILES): CC(=O)[C@H]1CC[C@H]2[C@@H]3CCC4=CC(=O)CC[C@]4(C)[C@H]3CC[C@]12C [PROGESTERONE]
- Papp (in vitro [12]): 40.7 ×10⁻⁶ cm/s

Structure (SMILES): N#CCc1cc(-c2ccc(Cl)c(Cl)c2)n(-c2ccnc(N[C@H]3CCN(C(=O)C4CC4)C3)n2)n1
- viability at 24 h (in vitro [2]): 103%
- viability at 10 µM (Cortical neurone [13]): 14%
- IC50 [14]: 227 nM

Further lines, with some results ahead:

- IC50 [1]: 276 nM
Structure (SMILES): CN1CCN(c2ccc(Nc3nccc(-n4cc(/C=C/c5ccccc5)c(C(N)=O)n4)n3)cc2)CC1
- viability at 24 h (in vitro [2]): 104%

- IC50 [1]: 8330 nM
Structure (SMILES): CCOC(=O)c1nn(-c2ccnc(Nc3ccc(N4CCC(N(C)C)CC4)cc3)n2)cc1/C=C/c1cccc(Br)c1

- remaining at 1 h (in vitro [9]): 20.3%
Structure (SMILES): COc1ccc(CCN(C)CCCC(C#N)(c2ccc(OC)c(OC)c2)C(C)C)cc1OC (stereo not drawn)

- remaining at 1 h (in vitro [10]): 90%
- remaining at 0.5 h (in vitro [11]): 95%
Structure (SMILES): CCOC(=O)[C@H](CCc1ccccc1)N[C@@H](C)C(=O)N1CCC[C@H]1C(=O)O

- IC50 [1]: 96 nM
Structure (SMILES): CN(C)C1CCN(c2ccc(Nc3nccc(-n4cc(/C=C/c5ccccc5)c(C(N)=O)n4)n3)cc2)CC1
- viability at 24 h (in vitro [2]): 102%
